Results as given in patent US11865129B2, “Application of anemoside B4 in preparation of a drug for treatment or prevention of psoriasis” (GUANGXI XINHAI PHARMACEUTICAL TECHNOLOGY CO., LTD., priority 2021, dated 2024).

Tested on: psoriasis skin lesions
Test: Histopathological observation of skin (HE staining), psoriasis model mice
Format: in vivo, BALB/c male mice
Conditions: 12 days
Protocol: A shaving area on the back of the mice in each group is 2.5 cm×3 cm, and the vellus is removed with mild depilatory cream. The mice of each group except the blank control group are modeled by administrating 62.5 mg 5% imiquimod cream on the shaving area until the skin is thickened and has erythema and silver scales for modeling completely. During the model establishment, 5% imiquimod cream is administrated once a day, and continuously administrated for 14 days. On the third day, the model establishment is continued and drugs are administered at the same time, wherein the mice in the AC intragastric administration group (8 mg/kg), the anemoside B4 intragastric (i.g.) administration group (5 mg/kg), the anemoside B4 intragastric administration group (10 mg/kg), and the anemoside B4 intragastric administration group (20 mg/kg) are administrated once a day, and continuously administrated for 12 days. […] The mice in the blank control group and the model control group are applied 62.5 mg Vaseline to the skin lesions once a day, and continuously applied for 12 days. The weight of the mice is recorded for counting the weight change of the mice. After blood collection of the mice in each group of the first animal group, the mice are killed by dislocation of cervical vertebra, separated the skin in the skin lesions, and removed subcutaneous fat. Taking a part, fixing it with 4% paraformaldehyde, embedding, obtaining section, dying with hematoxylin and eosin (HE), and observing histopathological changes of the skin under a light microscope.

Measured: psoriasis skin lesions, HE staining of skin tissue

C=C(C)[C@@H]1CC[C@]2(C(=O)O[C@@H]3O[C@H](CO[C@@H]4O[C@H](CO)[C@@H](O[C@@H]5O[C@@H](C)[C@H](O)[C@@H](O)[C@H]5O)[C@H](O)[C@H]4O)[C@@H](O)[C@H](O)[C@H]3O)CC[C@]3(C)[C@H](CC[C@@H]4[C@@]5(C)CC[C@H](O[C@@H]6OC[C@H](O)[C@H](O)[C@H]6O[C@@H]6O[C@@H](C)[C@H](O)[C@@H](O)[C@H]6O)[C@@](C)(CO)[C@@H]5CC[C@]43C)[C@H]12 [anemoside B4]
significantly improved: intragastric 5 mg/kg once a day | intragastric 10 mg/kg once a day | intragastric 20 mg/kg once a day
